System: IL1A
Experiment: Gene expression custom microarray, human skin fibroblasts (Example 1): IL1A
Format: cell-based
Details: 24 hr; for fold induction at 10 µM: Skin fibroblast, read-out: IL1A↓ gene expression, fold increase or decrease vs untreated cells
Text: Cell cultures: A human skin fibroblast cell culture (or cultures) was obtained through the Coriell Cell Repository from the National Institute on Aging Cell Repository (Camden, N.J.), or Promocell GmbH (Heidelberg, Germany). The initial culture was selected from the following cell lines: AG13066, AG11557, AG11796 or GM03651E. The cell lines were derived from donors as follows:
Experimental phase: When the appropriate quantity of cells had been grown, they were detached as described above, but at the final step were seeded into each well of one or more 6 well dishes. Each well received 2 ml of the cell suspension so they were seeded equally. The dishes were returned to the incubator until 85-95% confluency was reached.
It is at this stage that all wells were rinsed in PBS after aspirating the growth media. The compound(s) to be tested were previously mixed into a suitable solvent (e.g., DMSO or ethanol) that can be diluted to the desired concentration of test compound (10 μl) in the culture wells without exceeding maximum solvent concentrations and adversely effecting cell viability, and mixed with basal media. NOTE: Standard maximum levels of solvent are 0.1% for DMSO and 0.5% for ETOH. The concentration of each test compound is found in Tables 1 & 2.
Every 2 wells on the 6 well plate served as a biological replicate for the purposes of RNA isolation and genetic expression evaluations making each 6 well dish an n=3 for the test compound(s) contained in the media. Negative control plates (no test compound(s) and only basal media) were also generated. The plates were returned to the incubator for 24 hrs.
At the end of the 24 hr time period, the plates were removed from the incubator, the test media aspirated, and the cells rinsed with PBS. RNA isolation is performed using the BioRad Aurum Total RNA Mini Kit (Hercules, Calif.) per manufacturer's protocol; which is described, in brief, below: • Add 350 μl of lysis buffer to each well. Pipet multiple times to ensure thorough lysis. Add lysed cells to the collection tube. • Add 350 μl of 70% ETOH to the collection tube and mix thoroughly. • Pipet the generated lysate onto the spin column placed in a new 2 ml tube. Centrifuge for 30 sec between 8,000 and 10,000 g. • Place the spin column containing the now bound RNA, in a new 2 ml tube. Add 700 μl of low stringency wash solution to the spin column. Centrifuge for 30 sec between 8,000 and 10,000 g. Discard the flow through and replace spin column. • Add 80 μl of DNase I dilution to the spin column and incubate at room temperature for 15 minutes. • Add 700 μl of high stringency wash solution to the column and centrifuge for 30 sec between 8,000 and 10,000 g. Discard flow through. • Add 700 μl of low stringency wash solution to the column and centrifuge for 60 sec between 8,000 and 10,000 g. Discard flow through. • Centrifuge for 2 minutes to remove residual wash solution. • Transfer spin column to new 1.5 ml collection tube and add 80 μl of elution solution to the column. Allow 1 minute for saturation of the membrane and then centrifuge for 2 minutes to complete the RNA elution. • Quantify the quantity of RNA and store at −20 C° until use (no more than 1 month)
The genes tested were: • Cannabinoid receptor 1 (CB1(CNR1)) • Cannabinoid receptor 2 (CB2 (CNR2)) • Fatty acid amide hydrolase (FAAH) • Monoacylglycerol lipase (MGLL, i.e., MAGL) • Peroxisome proliferator-activated receptor gamma (PPARG) • Nuclear factor kappa-light-chain-enhancer of activated B cells (NFκβ) • Interleukin 1 Alpha (IL1alpha) • Cyclooxygenase 1 (PTGS1, i.e., COX1) • Transient receptor potential cation channel subfamily A member 1 (TRPA1) • Transient receptor potential cation channel subfamily V member 1 (TRPV1) • Transient receptor potential cation channel subfamily M member 8 (TRPM8) • Hemoglobin Subunit Beta (HBB) REFERENCE GENE • Ribosomal Protein L13a (RPL13A) REFERENCE GENE […]

Compound	fold induction at 10 µM	IL1A↓ gene expression, fold increase or decrease vs untreated cells (10 uM) [fold]
CC(C)[C@]12O[C@H]1[C@@H]1O[C@]13[C@]1(O[C@H]1C[C@H]1C4=C(CC[C@@]13C)C(=O)OC4)[C@@H]2O [Triptolide]	15.5	–
CCCCCCCCCCCCCCCC(=O)NCCO [N-palmitoylethanolamide]	–	−1.2
C=C(C)[C@@H]1CCC(C)=C[C@H]1c1c(O)cc(CCCCC)cc1O [CBD, cannabidiol, reference compound]	20.5	–

Reference: patent US20220202739A1, “ENDOCANNABINOID MIMETIC AND ANTI-INFLAMMATORY COMPOUND CONTAINING COMPOSITIONS, METHODS OF PREPARATION AND USES THEREOF” (priority 2019, published 2022)
